Values of other authors, collected in US20100285114A1, “PHARMACEUTICAL COMPOSITIONS OF RHEIN OR DIACEREIN” (priority 2007, published 2010).
Where a name gives a salt, the structure may show the parent alone.

Experiments:
[1] = in vivo

Row | SMILES | soft stool effect expected due to inherent pharmacokinetic property (enterohepatic circulation) [1] | solubility (in water, alcohols, acetone, dichloromethane and chloroform) | solubility in water (disclosed in EP 243,968)
1 | CC(=O)Oc1cccc2c1C(=O)c1c(OC(C)=O)cc(C(=O)O)cc1C2=O [diacerein, 4,5-bis (acetyloxy) 9,10-dihydro-4,5-dihydroxy-9,10-dioxo-2-anthracenecarboxylic acid] | 30-40% | practically insoluble | 
2 | CC(=O)Oc1cccc2c1C(=O)c1c(OC(C)=O)cc(C(=O)O)cc1C2=O [potassium salt of diacerein] |  |  | water-soluble
